# Where a name gives a salt, the structure may show the parent alone. Read-outs that look alike come from different tables or passages of the source.
# What was measured:
# human forearm skin [1] = details: in vivo
# Description: Patches of the saturated film 2 cm^2 in area were placed by test subjects on their own forearm skin and held in place by clear, nonocclusive adhesive (Tegaderm), allowing constant observation of the skin under the patch. After 17 hours, skin damage was evaluated by visual observation. The damage was ranked using the following scale: 1 (no discoloration, no erythema); 2 (pink coloration, slight erythema); 3 (reddening, moderate erythema, no burning); 4 (reddening and burning, moderate erythema); 5 (erythema and edema, with or without burning); 6 (severe erythema, edema, and burning); and 7 (severe erythema, severe burning, blistering, and edema).
# A physiologically active amine in the free base form can be evaluated for skin irritancy by Procedures A, B, or C, set out above. Alternatively, irritation can be determined by other conventional patch test involving maintaining the amine in contact with the skin for 24 hours, and then observing the skin. The results are evaluated using the scales provided for Procedures A, B, or C as defined herein.
# human forearm skin [2] = experiment: Procedure B primary irritation study in humans (Finn Chambers, 24 hours, 0-4 erythema score)
# Text: Procedure B Primary Irritation Study in Human- Alternative Method Finn Chambers (Epitest, Ltd OY, Tuusula, Finland) for epicutaneous testing of irritation on Scanpor adhesive (Norgesplaster A/S, Norway; 10 chambers) were used to test the primary irritancy of the test compound or composition. The formulations were introduced into the Finn Chambers using the following procedures. The adhesive covering was removed and the filter paper dots were placed into the chambers to be used. A disposable pasteur pipette was used to add one drop of formulation onto the filter paper. The pipette was then discarded. This was repeated for each formulation, up to 10 formulations. The subjects' forearm was lowered onto the scanpor adhesive and pressure was applied to insure adhesion. Two strips of 2" paper tape were overlapped over the scanpor adhesive. This remained in place for 24 hours, at which time it was removed and scored immediately using the table below. […]
# Procedure B was used to evaluate the irritancy of physiologically active amines with or without complexation or solvation as described in more detail below.
# skin [3] = details: WO 86/00806; cited from earlier work
# skin [4] = details: WO 86/00806; cited from earlier work; remark: listed apart in the source
# skin [5] = system: skin
# [6] = Description: Given this information and the empirically determined transdermal flux rate of the material, the required patch size in centimeters^2 for effective dosing can be determined. […] The estimated patch size is determined by dividing the calculated therapeutically effective dose rate by the in vitro transdermal flux rate.
# The estimated patch size for such a composition can be calculated as described in detail above. […] Since water soluble salt forms of physiologically active amines are not at all soluble in nonpolar, nonvolatile solvents, these solvents cannot be used to increase their transdermal flux rate.
# The transdermal patch sizes required to deliver an effective dosage of a selected group of physiologically active amines were evaluated as described above. […] DEET, however, is not an appropriate solvent for extended transdermal drug delivery because it is not a United States Pharmacopeia accepted ingredient.
# [7] = cited from earlier work
# [8] = Transdermal flux rate through human skin in vitro (flow-through diffusion cell)
# Description: A surgically-removed human skin source was used for all in vitro diffusion cell tests. […] Briefly, the full-thickness skin was immersed in distilled water heated to 60±1 degrees C for 45 seconds. The epidermal-stratum corneum layers were then peeled from the dermis. The epidermis-stratum corneum layers were then excised with a cork borer into circular disks 1.4 cm in diameter.
# The skin was then mounted onto a Teflon flow-through diffusion cell. […] The skin sample of the donor portion of the diffusion cell was secured in place into the receptor cell. The flow-through cell consisted of a Teflon receptor cell with an exposed skin surface area of 0.32 cm^2 and a receptor cell volume of 0.13 mi. Sink conditions were maintained by pumping phosphate-buffered saline under the skin in the receptor cell at about 3 ml/hr. Thus, the receptor volume was replaced about 23 times per hour. These cells were then mounted on a water-jacketedbracket which maintained the receptor solution in the cells at 33 degrees C. The receptor media which was pumped under the cells was degassed in order to reduce air bubble formation under the skin. […]
# Liquid scintillation fluor was added directly to the sample vials so that they could be measured with minimal liquid transfers and handling. The sample vials were then analyzed with appropriate quench correction techniques by liquid scintillation spectroscopy. […]
# rabbit back skin = experiment: Procedure C primary skin irritation tests in animals; details: 24 hour exposure, scored 24 and 72 hours
# Description: Procedure C Primary Skin Irritation Tests in Animals Tests were performed on young adult albino rabbits (New Zealand White rabbits). Six rabbits were used for each test. The rabbits were prepared for the test by clipping the hair from the backs of the rabbits and any rabbit showing skin damage from the clipping was rejected from the testing. The application sites for the transdermal drug delivery (TDD) patch was intact skin. As an example, a formulation containing the test composition was incorporated into Poroplastic® transdermal patches. One TDD patch containing the test material was applied to one side of the rabbit's back. […] A one (1) inch square gauze patch, two single layers thick, was used to cover the test TDD patch. The animals were immobilized with patches secured in place by adhesive tape. The entire trunk of the animal was then wrapped with an impervious material for the twenty-four (24) hour exposure period. After 24 hours of exposure the patches were removed and the resulting reactions evaluated on the basis of the scoring system indicated below. Observations were again made at the end of a total of 72 hours (48 hours after the first reading). […]
# After 24 hours of exposure the patches were removed and the resulting reactions evaluated on the basis of scores as described above.
# skin [9] = details: oral form; Physician's Desk Reference; cited from earlier work
# [10] = Procedure B, human forearm, 24 hours, score 0-4
compound,measurement,setting,value
"CN(C)CCC(c1ccc(Cl)cc1)c1ccccn1 (stereo not drawn) [Chlorpheniramine Salicylate (1:1 M), Chlorpheniramine Salicylate]",Irritation Rating (1-7),human forearm skin [1],1.0
same,Erythema Rating,"human forearm skin [2]; Procedure B, human forearm, 24 hours, score 0-4, listed as Chlorpheniramine salicylate (1:1 molar ratio)",0.0
CCCCC/C=C\C/C=C\CCCCCCCC(=O)O [Linoleic acid],Erythema Rating,human forearm skin [2]; [10],0
CCCCCCCC/C=C\CCCCCCCC(=O)O [Oleic acid],Erythema Rating,human forearm skin [2]; in vivo,0
C=CCCCCCCCCC(=O)O [Undecylenic acid],Erythema Rating,human forearm skin [2]; in vivo,0
CN1CCC(=C2c3ccccc3CCc3cccnc32)CC1 [azatadine],dermal penetration (in words),skin [3],good dermal penetration
same,dermal irritation or sensitization (in words),skin [4],no dermal irritation or sensitization
CN(C)CCC(c1ccc(Br)cc1)c1ccccn1 (stereo not drawn) [brompheniramine maleate],skin irritation (in words),skin [5]; in vivo,minimally irritating
CCCCCCCCCCCCCCCCCC(=O)OCCCC [butyl stearate],Erythema Rating,human forearm skin [2]; in vivo,0
CN(C)CCC(c1ccc(Cl)cc1)c1ccccn1 (stereo not drawn) [chlorpheniramine maleate],Irritation Rating (1-7),human forearm skin [1],1.0
same,Erythema Rating,"human forearm skin [2]; Procedure B, human forearm, 24 hours, score 0-4, listed as Chlorpheniramine maleate (1:1 molar ratio)",0.0
same,skin irritation (in words),skin [5]; procedure not specified,minimally irritating
CN(C)CCC(c1ccc(Cl)cc1)c1ccccn1 (stereo not drawn) [chlorpheniramine],Erythema Rating,human forearm skin [2]; [10],4.0
same,estimated flux needed to achieve therapeutic blood levels,[6],90 µg/h
CN(C)CC[C@@H](c1ccc(Br)cc1)c1ccccn1 [dexbrompheniramine],effective blood concentration,[7]; in vivo,5.3 ng/mL
same,cal dose rate,[6],98 µg/h
CN(C)CCOC(c1ccccc1)c1ccccc1 [diphenhydramine hydrochloride],transdermal flux / skin penetration (in words),[8]; human skin,do not permeate the skin with a therapeutically effective flux rate
CN(C)CCOC(c1ccccc1)c1ccccc1 [diphenhydramine],Transdermal flux rate,"[8]; Table 2, applicant's compositions",55.8 μg/cm2/hr
OCCOCCN1CCN(C(c2ccccc2)c2ccc(Cl)cc2)CC1 (stereo not drawn) [hydroxyzine],irritation rating,human forearm skin [2]; in vivo,≤ 2
CCCCCCCCCCCCCC(=O)OC(C)C [isopropyl myristate],Erythema Rating,human forearm skin [2]; in vivo,0.3
CCCCCCCC/C=C\CCCCCCCC(=O)OC(C)C [isopropyl oleate],Erythema Rating,human forearm skin [2]; [10],0
CN1CCCC1c1cccnc1 (stereo not drawn) [nicotine],primary irritation score,rabbit back skin,less than 2
same,Clearance,[7]; Table 2,1200 mL/min
same,effective blood concentration,[7]; Table 2,13 ng/mL
same,cal dose rate,"[6]; Table 2, clearance times effective blood level",936 µg/h
"COc1ccc(CCN(C)CCCC(C#N)(c2ccc(OC)c(OC)c2)C(C)C)cc1OC (stereo not drawn) [oral form of Varapamil, Varapamil]",adverse skin reactions (in words),skin [9],"arthralgia and rash, exanthema, hair loss, hyperkeratosis, macules, StevenJohnsons syndrome, and erythema multiforme"
CCCCCCCC/C=C\CCCCCCCC(=O)OCCC [propyl oleate],Erythema Rating,human forearm skin [2]; [10],0

# — patent US5422118A, “Transdermal administration of amines with minimal irritation and high transdermal flux rate” (priority 1992, dated 1995)
